Laboratory results from patent US20240383875A1, “Benzimidazole Pyridine Derivatives” (Hoffmann-La Roche Inc., priority 2022, published 2024).

How the values were obtained:
Type in all cases: biochemical
SIK1 = SIK1 (Homo sapiens, UniProt P57059); assay: Enzymatic activity assay SIK1, RapidFire mass spectrometry (phosphorylation of CHK-peptide); conditions: RapidFire MS, inhibition of SIK1; read-out: SIK1 RF IC50
How it was run: (§1)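 Compounds (12-point, 3-fold, generally 30 μM to 170 pM) were pre-incubated 30 min at ambient temperature with SIK1 (5 nM), SIK2 (0.5 nM) or SIK3 (1.5 nM) in HEPES pH 7.0/magnesium acetate buffer. CHK-peptide (10 μM solution) and ATP (100 μM solution) were then added for 45 min before formic acid quench.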

SIK3 = SIK3 (Homo sapiens, UniProt Q9Y2K2); assay: Enzymatic activity assay SIK3, RapidFire mass spectrometry (phosphorylation of CHK-peptide); conditions: RapidFire MS, inhibition of SIK3; read-out: SIK3 RF IC50
How it was run: as §1

SIK2 = SIK2 (Homo sapiens, UniProt Q9H0K1); assay: Enzymatic activity assay SIK2, RapidFire mass spectrometry (phosphorylation of CHK-peptide); conditions: RapidFire MS, inhibition of SIK2; read-out: SIK2 RF IC50
How it was run: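 SIK2 (0.5 nM) in pH 7.0 HEPES buffer with 10 mM Mg acetate phosphorylates CHK-peptide (10 μM solution) with 100 μM ATP solution, 45 min ambient, then formic acid quench.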

Sequence of SIK3 (Q9Y2K2 whole entry): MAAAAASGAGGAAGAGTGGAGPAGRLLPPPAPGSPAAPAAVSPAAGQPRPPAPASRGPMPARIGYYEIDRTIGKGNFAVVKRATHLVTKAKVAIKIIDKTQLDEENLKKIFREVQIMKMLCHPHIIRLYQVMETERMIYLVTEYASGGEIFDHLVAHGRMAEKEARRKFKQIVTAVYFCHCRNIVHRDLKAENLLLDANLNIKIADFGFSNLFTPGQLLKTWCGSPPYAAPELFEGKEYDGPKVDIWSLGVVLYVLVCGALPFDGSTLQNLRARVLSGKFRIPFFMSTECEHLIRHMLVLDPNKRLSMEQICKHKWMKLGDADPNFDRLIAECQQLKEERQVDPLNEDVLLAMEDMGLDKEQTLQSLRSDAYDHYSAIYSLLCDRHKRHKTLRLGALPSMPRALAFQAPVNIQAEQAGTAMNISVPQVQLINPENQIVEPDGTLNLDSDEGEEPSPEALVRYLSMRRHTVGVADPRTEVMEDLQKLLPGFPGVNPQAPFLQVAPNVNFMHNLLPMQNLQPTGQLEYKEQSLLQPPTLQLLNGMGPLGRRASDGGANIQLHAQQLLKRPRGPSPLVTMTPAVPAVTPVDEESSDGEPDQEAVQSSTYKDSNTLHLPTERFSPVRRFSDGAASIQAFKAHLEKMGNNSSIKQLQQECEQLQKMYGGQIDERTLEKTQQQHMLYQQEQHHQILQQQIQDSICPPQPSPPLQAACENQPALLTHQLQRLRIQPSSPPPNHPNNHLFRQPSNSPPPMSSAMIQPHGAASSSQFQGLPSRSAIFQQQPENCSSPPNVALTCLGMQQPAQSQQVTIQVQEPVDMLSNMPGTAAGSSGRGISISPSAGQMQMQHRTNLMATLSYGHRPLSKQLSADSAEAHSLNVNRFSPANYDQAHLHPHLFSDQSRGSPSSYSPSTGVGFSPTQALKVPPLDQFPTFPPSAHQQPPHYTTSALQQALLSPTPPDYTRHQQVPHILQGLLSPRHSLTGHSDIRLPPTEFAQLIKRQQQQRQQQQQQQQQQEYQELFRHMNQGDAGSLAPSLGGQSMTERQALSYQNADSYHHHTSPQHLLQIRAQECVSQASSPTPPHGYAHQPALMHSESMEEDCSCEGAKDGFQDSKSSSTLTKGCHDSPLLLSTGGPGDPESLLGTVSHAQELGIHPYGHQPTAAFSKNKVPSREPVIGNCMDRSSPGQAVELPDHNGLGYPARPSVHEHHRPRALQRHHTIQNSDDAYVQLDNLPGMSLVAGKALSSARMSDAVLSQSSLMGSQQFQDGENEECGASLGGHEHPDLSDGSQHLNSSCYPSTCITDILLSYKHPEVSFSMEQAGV
Sequence of SIK2 (Q9H0K1 whole entry): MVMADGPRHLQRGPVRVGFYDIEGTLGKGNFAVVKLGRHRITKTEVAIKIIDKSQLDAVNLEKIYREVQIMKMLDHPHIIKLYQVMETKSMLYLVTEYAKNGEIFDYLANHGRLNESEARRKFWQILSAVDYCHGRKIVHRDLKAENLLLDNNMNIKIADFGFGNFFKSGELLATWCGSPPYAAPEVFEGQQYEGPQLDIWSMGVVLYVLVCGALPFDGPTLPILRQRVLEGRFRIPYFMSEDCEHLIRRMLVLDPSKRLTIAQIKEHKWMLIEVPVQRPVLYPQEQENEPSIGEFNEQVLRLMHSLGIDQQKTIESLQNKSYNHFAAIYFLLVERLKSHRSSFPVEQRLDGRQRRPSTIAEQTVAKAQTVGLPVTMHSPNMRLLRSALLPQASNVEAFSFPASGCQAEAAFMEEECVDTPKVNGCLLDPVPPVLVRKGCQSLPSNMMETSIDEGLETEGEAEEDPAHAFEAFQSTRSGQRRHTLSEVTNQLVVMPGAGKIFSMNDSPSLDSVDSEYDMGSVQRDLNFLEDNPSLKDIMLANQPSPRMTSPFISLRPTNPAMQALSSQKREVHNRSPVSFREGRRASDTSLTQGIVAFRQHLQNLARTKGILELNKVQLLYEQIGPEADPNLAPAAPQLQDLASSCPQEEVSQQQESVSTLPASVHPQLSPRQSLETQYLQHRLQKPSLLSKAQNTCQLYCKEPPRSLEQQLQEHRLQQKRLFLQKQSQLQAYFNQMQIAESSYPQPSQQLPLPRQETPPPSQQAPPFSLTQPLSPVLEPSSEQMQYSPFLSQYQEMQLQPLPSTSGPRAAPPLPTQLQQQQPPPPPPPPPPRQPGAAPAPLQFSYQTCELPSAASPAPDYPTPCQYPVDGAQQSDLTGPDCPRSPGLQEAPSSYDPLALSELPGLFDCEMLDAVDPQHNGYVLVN
Sequence of SIK1 (P57059 whole entry): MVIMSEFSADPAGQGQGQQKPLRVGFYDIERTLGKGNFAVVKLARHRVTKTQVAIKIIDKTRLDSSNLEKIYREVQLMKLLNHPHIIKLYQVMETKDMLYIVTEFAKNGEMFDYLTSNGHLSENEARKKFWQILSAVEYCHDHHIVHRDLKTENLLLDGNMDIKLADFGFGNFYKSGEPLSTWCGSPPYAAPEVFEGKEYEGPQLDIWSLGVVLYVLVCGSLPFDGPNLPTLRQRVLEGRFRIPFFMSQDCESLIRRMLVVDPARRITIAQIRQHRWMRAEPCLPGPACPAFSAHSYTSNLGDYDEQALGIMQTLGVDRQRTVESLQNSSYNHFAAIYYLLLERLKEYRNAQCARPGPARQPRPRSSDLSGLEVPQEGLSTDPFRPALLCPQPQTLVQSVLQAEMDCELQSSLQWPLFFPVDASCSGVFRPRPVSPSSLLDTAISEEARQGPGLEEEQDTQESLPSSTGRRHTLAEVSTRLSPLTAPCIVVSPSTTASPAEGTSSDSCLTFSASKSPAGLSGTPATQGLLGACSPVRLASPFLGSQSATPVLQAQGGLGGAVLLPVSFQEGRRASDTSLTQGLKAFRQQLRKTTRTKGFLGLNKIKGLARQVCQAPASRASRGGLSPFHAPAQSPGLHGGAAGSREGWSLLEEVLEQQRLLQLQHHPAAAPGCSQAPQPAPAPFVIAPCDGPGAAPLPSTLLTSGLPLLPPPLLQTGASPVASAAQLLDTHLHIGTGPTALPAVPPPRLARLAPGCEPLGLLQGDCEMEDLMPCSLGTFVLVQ

| Structure (SMILES) | IC50 (SIK1) [nM] | IC50 (SIK3) [nM] | IC50 (SIK2) [nM] |
| --- | --- | --- | --- |
| Cc1ccc(Nc2ccc3c(c2)ncn3-c2ccc(C(C)O)c(-n3nc(S(C)(=O)=O)cc3C)n2)nn1 (stereo not drawn) [Example 145, 1-[2-(5-Methyl-3-methylsulfonyl-pyrazol-1-yl)-6-[5-[(6-methylpyridazin-3-yl)amino]benzimidazol-1-yl]-3-pyridyl]ethanol] | 552 | 1.4 | 9 |
| Cc1ccc(Nc2ccc3c(c2)ncn3-c2ccc(C(C)O)c(N3C[C@H](C#N)C[C@@H]3C)n2)nn1 (stereo partly drawn) [Example 242, (3R,5S)-1-[3-(1-hydroxyethyl)-6-[5-[(6-methylpyridazin-3-yl)amino]benzimidazol-1-yl]-2-pyridyl]-5-methyl-pyrrolidine-3-carbonitrile; formic acid] | 843 | 1.8 | 9.5 |
| Cc1cc(C#N)nn1-c1nc(-n2cnc3ccc(CN4CCCCC4=O)cc32)ccc1C(C)O (stereo not drawn) [Example 215, 1-[3-(1-Hydroxyethyl)-6-[6-[(2-oxo-1-piperidyl)methyl]benzimidazol-1-yl]-2-pyridyl]-5-methyl-pyrazole-3-carbonitrile] | 347 | 1860 | 371 |
| Cc1cc(C#N)nn1-c1nc(-n2cnc3cc(Nc4ccc(F)c(F)c4F)c(F)cc32)ccc1C(C)O (stereo not drawn) [Example 378, 1-[6-[6-fluoro-5-(2,3,4-trifluoroanilino)benzimidazol-1-yl]-3-(1-hydroxyethyl)-2-pyridyl]-5-methyl-pyrazole-3-carbonitrile] | 79 | 21.7 | 32.5 |
| Cc1ccc(Nc2ccc3c(c2)ncn3-c2ccc(C(C)O)c(-c3cnn(CC4CC4)c3C)n2)nn1 (stereo not drawn) [Example 272, 1-[2-[1-(Cyclopropylmethyl)-5-methyl-pyrazol-4-yl]-6-[5-[(6-methylpyridazin-3-yl)amino]benzimidazol-1-yl]-3-pyridyl]ethanol; formic acid] | 193 | 1.2 | 2.4 |
| Cc1cc(C(F)F)nn1-c1nc(-n2cnc3cc(Nc4ccc(Cl)nn4)c(F)cc32)ccc1C(C)O (stereo not drawn) [Example 372, 1-[6-[5-[(6-chloropyridazin-3-yl)amino]-6-fluoro-benzimidazol-1-yl]-2-[3-(difluoromethyl)-5-methyl-pyrazol-1-yl]-3-pyridyl]ethanol] | 1220 | 3.6 | 8.5 |
| COc1cc2ncn(-c3ccc(C(C)O)c(-n4ccc(C(F)(F)F)n4)n3)c2cc1OC (stereo not drawn) [Example 63, 1-[6-(5,6-Dimethoxybenzimidazol-1-yl)-2-[3-(trifluoromethyl)pyrazol-1-yl]-3-pyridyl]ethanol] | 93 | 152 | 34.6 |
| CC(O)c1ccc(-n2cnc3cc(OCCN4CCOCC4)ccc32)nc1Oc1ccccc1 (stereo not drawn) [Example 53, 1-[6-[5-(2-Morpholinoethoxy)benzimidazol-1-yl]-2-phenoxy-3-pyridyl]ethanol] | 2150 | 405 | 320 |
| Cc1ccc(Nc2ccc3c(c2)ncn3-c2ccc(C(C)O)c(N3CCOC(C#N)C3)n2)nn1 (stereo not drawn) [Example 360, 4-[3-(1-hydroxyethyl)-6-[5-[(6-methylpyridazin-3-yl)amino]benzimidazol-1-yl]-2-pyridyl]morpholine-2-carbonitrile] | 2320 | 7.9 | 42.3 |
| Cc1ccc(Nc2ccc3c(c2)ncn3-c2ccc(C(C)O)c(N3CC4CC3CC4(F)F)n2)nn1 (stereo not drawn) [Example 322, 1-[2-(5,5-difluoro-2-azabicyclo[2.2.1]heptan-2-yl)-6-[5-[(6-methylpyridazin-3-yl)amino]benzimidazol-1-yl]-3-pyridyl]ethanol] | 966 | 2.4 | 16.3 |
| Cc1cc(C#N)nn1-c1nc(-n2cnc3cc(-c4ccn(C)c(=O)n4)ccc32)ccc1C(C)O (stereo not drawn) [Example 338, 1-[3-(1-hydroxyethyl)-6-[5-(1-methyl-2-oxo-pyrimidin-4-yl)benzimidazol-1-yl]-2-pyridyl]-5-methyl-pyrazole-3-carbonitrile] | 87 | 27.6 | 27.2 |
| Cc1ccc(Nc2ccc3ncn(-c4ccc(C(C)O)c(-n5cc(C)c(C#N)n5)n4)c3c2)nn1 (stereo not drawn) [Example 169, 1-[3-(1-Hydroxyethyl)-6-[6-[(6-methylpyridazin-3-yl)amino]benzimidazol-1-yl]-2-pyridyl]-4-methyl-pyrazole-3-carbonitrile; formic acid] | 613 | 85.2 | 135 |
| Cc1ccc(Nc2ccc3c(c2)ncn3-c2ccc(C(C)O)c(-c3ccc(O)cc3C#N)n2)nn1 (stereo not drawn) [Example 220, 5-Hydroxy-2-[3-(1-hydroxyethyl)-6-[5-[(6-methylpyridazin-3-yl)amino]benzimidazol-1-yl]-2-pyridyl]benzonitrile; formic acid] | 6740 | 46.2 | 154 |
| Cc1cc(C#N)nn1-c1nc(-n2cnc3cc(Nc4cccnn4)ccc32)ccc1C(C)O (stereo not drawn) [Example 89, 1-[3-(1-Hydroxyethyl)-6-[5-(pyridazin-3-ylamino)benzimidazol-1-yl]-2-pyridyl]-5-methyl-pyrazole-3-carbonitrile] | 95 | 0.7 | 1.2 |

Compounds with a lower IC50 (SIK1), results first:

| IC50 (SIK1) [nM] | IC50 (SIK3) [nM] | IC50 (SIK2) [nM] | Structure (SMILES) |
| --- | --- | --- | --- |
| 62 | 1.5 | 6 | Cc1ncc(Nc2ccc3c(c2)ncn3-c2ccc(C(C)O)c(-n3nc(C#N)cc3C)n2)cn1 (stereo not drawn) [Example 86, 1-[3-(1-Hydroxyethyl)-6-[5-[(2-methylpyrimidin-5-yl)amino]benzimidazol-1-yl]-2-pyridyl]-5-methyl-pyrazole-3-carbonitrile] |
| 47 | 43.2 | 31.5 | Cc1nnc(Nc2cc3ncn(-c4ccc(C(C)O)c(-n5nc(C#N)cc5C)n4)c3cc2F)o1 (stereo not drawn) [Example 377, 1-[6-[6-fluoro-5-[(5-methyl-1,3,4-oxadiazol-2-yl)amino]benzimidazol-1-yl]-3-(1-hydroxyethyl)-2-pyridyl]-5-methyl-pyrazole-3-carbonitrile] |
| 10 | 235 | 19.6 | Cc1cc(C#N)nn1-c1nc(-n2cnc3ccc(N4CCCC45COC5)cc32)ccc1C(C)O (stereo not drawn) [Example 295, 1-[3-(1-hydroxyethyl)-6-[6-(2-oxa-5-azaspiro[3.4]octan-5-yl)benzimidazol-1-yl]-2-pyridyl]-5-methyl-pyrazole-3-carbonitrile] |
| 41 | 19.4 | 25.1 | Cc1cc(C#N)nn1-c1nc(-n2cnc3cc(Nc4cccn(C)c4=O)ccc32)ccc1C(C)O (stereo not drawn) [Example 333, 1-[3-(1-hydroxyethyl)-6-[5-[(2-keto-1-methyl-3-pyridyl)amino]benzimidazol-1-yl]-2-pyridyl]-5-methyl-pyrazole-3-carbonitrile] |
| 1 | 0.4 | 0.2 | Cc1cc(C#N)nn1-c1nc(-n2cnc3cc(F)c(Nc4ccc(F)c(F)c4F)cc32)ccc1C(C)O (stereo not drawn) [Example 379, 1-[6-[5-fluoro-6-(2,3,4-trifluoroanilino)benzimidazol-1-yl]-3-(1-hydroxyethyl)-2-pyridyl]-5-methyl-pyrazole-3-carbonitrile] |
| 2 | 1.8 | 1.5 | Cc1cnc(Nc2ccc3c(c2)ncn3-c2ccc(C(C)O)c(-n3nc(C#N)cc3C)n2)nc1 (stereo not drawn) [Example 83, 1-[3-(1-Hydroxyethyl)-6-[5-[(5-methylpyrimidin-2-yl)amino]benzimidazol-1-yl]-2-pyridyl]-5-methyl-pyrazole-3-carbonitrile] |
| 7 | 0.5 | 0.2 | Cc1ccc(Nc2ccc3c(c2)ncn3-c2ccc(C(C)O)c(-n3nc(C(F)(F)F)c4c3CCNC4)n2)nn1 (stereo not drawn) [Example 97, 1-[6-[5-[(6-Methylpyridazin-3-yl)amino]benzimidazol-1-yl]-2-[3-(trifluoromethyl)-4,5,6,7-tetrahydropyrazolo[4,3-c]pyridin-1-yl]-3-pyridyl]ethanol] |
